From patent publication US9493466B2, “Treatment of cancer with TOR kinase inhibitors” (Signal Pharmaceuticals, LLC, priority 2011, dated 2016) come the findings set out here.

The subject of one experiment is NCI-H2122. Nature of the experiment: Cell viability assay for NSCLC lines. The experiment is classed as cell-based, human. To be noted: NCI-H2122, 3 days. Here is the method: (§1) Cell Viability Assay for NSCLC Lines. Cell viability was assessed using the Cell Titer-Glo Luminescent Cell Viability from Promega. The assay is a homogenous method of determining the number of viable cells in culture based on quantitation of the adenosine triphosphate (ATP) present, an indicator of metabolically active cells. The homogenous assay procedure involves adding the single reagent (CellTiter-Glo Reagent) directly to cells cultured in serum-supplemented medium. Cells were plated into a 96-well flat bottom plate (Costar Catalog Number 33595) at densities that were previously optimized for each cell line. The cells were incubated overnight in 5% CO2 at 37° C. The following day, compound dilutions were prepared and all concentrations were assayed in triplicate. The cells were incubated with Compound 1 (0.03 μM, 0.1 μM, 0.3 μM, 1 μM, 3 μM, 10 μM and 30 μM for NSCLC cells) in 5% CO2 at 37° C. for 3 days. After a 3-day incubation period, 100 μL of CellTiter-Glo reagent was added to each well for 2 minutes with shaking and further incubated for 10 minutes (no shaking) at room temperature to stabilize the signal. The luminescence was measured on the VICTOR X2 multilabel plate reader. The percent growth inhibition was calculated using the DMSO control in the same plate (no compound) response as 100% cell growth. The average values from triplicates were plotted to obtain IC50 values using software XLfit from IDBS. The formula used for determining IC50 in XLfit was model number 205, which utilizes a 4 Parameter Logistic Model or Sigmoidal Dose-Response Model to calculate the IC50 values. All IC50 values are reported as an average from either two independent experiments or a single experiment.

The next experiment has as its system NCI-H1437. The experiment can be described thus: Cell viability assay for NSCLC lines. To be noted: NCI-H1437, 3 days. The experiment is classed as cell-based, human. The method, then: as §1
The subject of another experiment is NCI-H727. The experiment can be described thus: Cell viability assay for NSCLC lines. To be noted: NCI-H727, 3 days. Type of experiment: cell-based, human. Here is the method: as §1
The next experiment concerns NCI-H2228. The experiment can be described thus: Cell viability assay for NSCLC lines. Type of experiment: cell-based, human. The settings on record: NCI-H2228, 3 days. Here is the method:
as §1

Another experiment has as its system NCI-H1944. The experiment can be described thus: Cell viability assay for NSCLC lines. Type of experiment: cell-based, human. To be noted: NCI-H1944, 3 days. The method, then: as §1
In another experiment the test system is SW1573. Nature of the experiment: Cell viability assay for NSCLC lines. Type of experiment: cell-based, human. To be noted: SW1573, 3 days. The method, then: as §1
In a further experiment the test system is NCI-H1650. The experiment can be described thus: Cell viability assay for NSCLC lines. The settings on record: NCI-H1650, 3 days. Type of experiment: cell-based, human. Here is the method:
as §1

A further experiment has as its system NCI-H441 tumors. Nature of the experiment: NCI-H441 NSCLC in vivo tumor growth model. The arrangement: species or system SCID mice. To be noted: 1 to 10 mg/kg oral BID, up to 26 days; FIG. 9. The method, then:
NCI-H441 NSCLC In Vivo Tumor Growth Model. A xenograft study was conducted with NCI-H441 tumor-bearing mice. SCID mice were inoculated subcutaneously with NCI-H441 cells in the flank region above the right hind leg. Following inoculation of the animals, the tumors were allowed to grow to about 100 mm^3 prior to randomization. On Day 14 following tumor cell inoculation, the mice bearing NCI-H441 tumors ranging between 87 and 136 mm^3 were pooled together and randomized into various treatment groups. Compound 1 was formulated in 0.5% CMC and 0.25% Tween 80 in water (as a suspension). The animals were orally administered vehicle (CMC-Tween) or Compound 1 twice daily (BID) for up to 26 days. Doses of Compound 1 ranged between 1 and 10 mg/kg. The positive control rapamycin (4 mg/kg, Q3D) was administered via the intraperitoneal (IP) route. Rapamycin was prepared as solution in 2% ethanol, 45% polyethyleneglycol 400, and 53% saline. Tumors were measured twice a week using calipers and tumor volumes were calculated using the formula of W^2×L/2. Statistical analysis was performed using a one-way analysis of variance (ANOVA) followed by Dunnett's post-hoc comparison with the vehicle-treated control group.

With `CO[C@H]1CC[C@H](N2C(=O)CNc3ncc(-c4ccc(C(C)(C)O)nc4)nc32)CC1` [Compound 1, 7-(6-(2-hydroxypropan-2-yl)pyridin-3-yl)-1-((1r,4r)-4-methoxycyclohexyl)-3,4-dihydropyrazino-[2,3-b]pyrazin-2(1H)-one], the IC50 in the experiment on NCI-H2122 is 900 nM; with NCI-H1437 it was 975 nM; with NCI-H727 it was 288 nM; with NCI-H2228 it was 264 nM; with NCI-H1944 it was 550 nM; with SW1573, 7210 nM. Further, in the experiment with NCI-H1650, the IC50 is > 30000 nM. In addition, the tumor growth result in the experiment on NCI-H441 tumors was “significantly inhibited”.

For orientation: IC50 means the concentration that inhibits the measured activity by half. Read a low IC50 as greater potency.
